Results on one molecule are retold here after PMC7763472, “High Capability of Pentagalloylglucose (PGG) in Inhibiting Multiple Types of Membrane Ionic Currents” (International Journal of Molecular Sciences, 2020).

The assay addresses T1, proton-activated Cl− channel (PAC) (Rattus norvegicus, UniProt Q66H28).
T1 construct: gene Pacc1
Briefly: whole-cell patch clamp of native IPAC in GH3 cells, pH […], single concentration […]. Format: cell-based.

T1 sequence (Q66H28 whole entry): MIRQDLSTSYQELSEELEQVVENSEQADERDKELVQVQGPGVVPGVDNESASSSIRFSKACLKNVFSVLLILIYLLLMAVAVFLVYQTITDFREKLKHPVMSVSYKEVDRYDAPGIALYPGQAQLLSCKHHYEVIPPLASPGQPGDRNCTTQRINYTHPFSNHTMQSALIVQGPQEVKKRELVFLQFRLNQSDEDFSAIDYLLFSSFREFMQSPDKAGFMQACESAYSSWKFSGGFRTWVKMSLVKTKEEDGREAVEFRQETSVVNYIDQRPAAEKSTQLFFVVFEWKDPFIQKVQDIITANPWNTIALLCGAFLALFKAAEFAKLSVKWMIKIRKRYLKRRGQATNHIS

Usually inhibition stands for the drop in the measured response relative to a control, in per cent. In turn, `CCCCC1(C2CCCC2)Cc2cc(OCCCC(=O)O)c(Cl)c(Cl)c2C1=O` (stereo not shown) [DCPIB, 4-[(2-Butyl-6,7-dichloro-2-cyclopentyl-2,3-dihydro-1-oxo-1H-inden-5yl)oxy] butanoic acid] displayed an inhibition at 10 µM of 51%.
